Consider 25 molecules from ChEMBL document CHEMBL1201862, “PubChem BioAssay data set” (2004).

Assay [1] is described as follows: Luminescence Cell-Based Dose Retest to Confirm Inhibitors of Cancer Stem Cells. [Related pubchem assays (depositor defined):AID2717, AID2721]. It is filed as functional. The conditions noted are these: Homo sapiens.
Assay [2] relates to INS1. In words: INS-1E survival protection against cytokine death – cell-based, luminescence, retest, dose response (AID 449756).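 Note: cell death triggered by IL-1 beta plus TNF-alpha plus IFN-gamma mixture; protective hits raise ATP signal compared with cytokine alone wells.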 It is filed as functional. The conditions noted are these: Rattus norvegicus.
Assay [3] concerns the target T1, Rac GTPase-activating protein 1 (Homo sapiens, UniProt Q9H0H5).
T1 sequence (Q9H0H5 whole entry): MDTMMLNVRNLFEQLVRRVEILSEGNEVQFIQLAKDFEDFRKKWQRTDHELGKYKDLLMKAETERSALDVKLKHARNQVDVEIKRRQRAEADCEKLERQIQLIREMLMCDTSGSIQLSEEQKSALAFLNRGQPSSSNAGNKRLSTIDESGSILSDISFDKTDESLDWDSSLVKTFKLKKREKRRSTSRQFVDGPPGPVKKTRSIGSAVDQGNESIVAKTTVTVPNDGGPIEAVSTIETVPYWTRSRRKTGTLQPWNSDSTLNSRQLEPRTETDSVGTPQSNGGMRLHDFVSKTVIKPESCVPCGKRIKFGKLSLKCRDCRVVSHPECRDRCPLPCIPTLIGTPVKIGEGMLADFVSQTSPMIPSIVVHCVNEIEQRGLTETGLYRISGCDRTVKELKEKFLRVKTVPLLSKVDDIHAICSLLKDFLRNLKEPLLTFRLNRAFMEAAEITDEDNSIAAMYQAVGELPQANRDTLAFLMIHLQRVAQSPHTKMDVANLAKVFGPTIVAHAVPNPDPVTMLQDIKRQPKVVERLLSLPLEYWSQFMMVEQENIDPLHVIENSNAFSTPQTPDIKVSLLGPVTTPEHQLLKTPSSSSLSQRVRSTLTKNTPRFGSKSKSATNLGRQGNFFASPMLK
Kind of assay: blockers of MgcRacGAP-driven Rac1 GTP hydrolysis – biochemical, ADP Hunter fluorescence, primary and confirmatory, confirmation (AID 624330). It is filed as functional.

Assay [4] can be described thus: P. falciparum Dd2 growth inhibitors, dose response, SYBR Green, cherry-picked samples (AID 1159567). It is filed as functional, cell-based.
The subject of assay [5] is H4. In words: Luminescence Cell-Based Dose Response HTS to Identify Activators of 5'UTR Stem-Loop Driven Prion Protein mRNA Translation in H4 Neuroglioblastoma Cells. [Related pubchem assays: 1829 (Project Summary), 1814 (Primary HTS)]. It counts as functional. The conditions noted are these: Homo sapiens.
Assay [6] has as its target Luciferin 4-monooxygenase (Photinus pyralis, UniProt P08659). Kind of assay: inhibition of purified Photinus pyralis luciferase – biochemical, luminescence, dose response (AID 1891).
A short description of assay [7]: Luminescence Cell-Based Dose Confirmation HTS to Identify Inhibitors of Platelet Dense Granule Release. [Related pubchem assays: 1663 (Primary HTS), 1678 (Summary of Project)]. It is filed as functional.
The target of assay [8] is Nonstructural protein 1 (Influenza A virus, UniProt Q194T2). It counts as functional, Influenza A virus (A/California/07/2009(H1N1)).
Sequence of Nonstructural protein 1 (Q194T2 whole entry): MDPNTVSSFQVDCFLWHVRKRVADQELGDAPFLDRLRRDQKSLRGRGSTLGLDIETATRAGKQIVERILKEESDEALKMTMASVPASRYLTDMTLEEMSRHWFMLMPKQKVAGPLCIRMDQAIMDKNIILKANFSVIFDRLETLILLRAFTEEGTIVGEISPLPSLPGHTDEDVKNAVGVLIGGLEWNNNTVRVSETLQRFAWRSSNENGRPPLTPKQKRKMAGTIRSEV
A short description of assay [9]: NIH3T3 cell viability loss – ATP luminescence, mouse fibroblasts, counter-screen, dose response (AID 2010).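 Note: cells exposed to compound for about 90 hours before reading.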 It counts as functional, cell-based. (In general: Counterscreens check selectivity or assay interference.)
The nature of assay [10]: luciferase reporter signal suppression in cells – H4 neuroglioma cells, luminescence, dose response (AID 1990). It is filed as functional, cell-based. Background: A reporter such as luciferase makes a cellular process visible.
Assay [11] in a line: Luminescence Cell-Based Dose Response HTS to Identify Inhibitors of 5'UTR Stem-Loop Driven Prion Protein mRNA Translation in H4 Neuroglioblastoma Cells. [Related pubchem assays: 1827 (Project Summary), 1813 (Primary HTS)]. It is filed as functional.
Assay [12] can be described thus: Trypanosoma cruzi growth suppression in host cells – NIH3T3 host cells, beta-gal luminescence, confirmation (AID 2044).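 Note: intracellular parasites grown in NIH/3T3 mouse fibroblasts as host cells; luminescent beta-galactosidase reporter signal from transgenic T. cruzi replicating inside host cells; inhibitors lower the luminescence signal.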 It counts as functional, cell-based.
Assay [13] can be described thus: alpha-synuclein stem-loop luciferase translation blockers – H4 neuroglioma cells, luminescence, confirmation (AID 1988). It counts as functional, cell-based.
Assay [14] is described as follows: viability of uninfected HEp-2 cells – cell-based, HTS, cytotoxicity control for RSV inhibitor project, dose response (AID 2410). It is filed as functional. Conditions: human respiratory syncytial virus.
Assay [15] addresses T2, Protein RecA (Mycobacterium tuberculosis, UniProt P9WHJ3).
T2 sequence (P9WHJ3 whole entry): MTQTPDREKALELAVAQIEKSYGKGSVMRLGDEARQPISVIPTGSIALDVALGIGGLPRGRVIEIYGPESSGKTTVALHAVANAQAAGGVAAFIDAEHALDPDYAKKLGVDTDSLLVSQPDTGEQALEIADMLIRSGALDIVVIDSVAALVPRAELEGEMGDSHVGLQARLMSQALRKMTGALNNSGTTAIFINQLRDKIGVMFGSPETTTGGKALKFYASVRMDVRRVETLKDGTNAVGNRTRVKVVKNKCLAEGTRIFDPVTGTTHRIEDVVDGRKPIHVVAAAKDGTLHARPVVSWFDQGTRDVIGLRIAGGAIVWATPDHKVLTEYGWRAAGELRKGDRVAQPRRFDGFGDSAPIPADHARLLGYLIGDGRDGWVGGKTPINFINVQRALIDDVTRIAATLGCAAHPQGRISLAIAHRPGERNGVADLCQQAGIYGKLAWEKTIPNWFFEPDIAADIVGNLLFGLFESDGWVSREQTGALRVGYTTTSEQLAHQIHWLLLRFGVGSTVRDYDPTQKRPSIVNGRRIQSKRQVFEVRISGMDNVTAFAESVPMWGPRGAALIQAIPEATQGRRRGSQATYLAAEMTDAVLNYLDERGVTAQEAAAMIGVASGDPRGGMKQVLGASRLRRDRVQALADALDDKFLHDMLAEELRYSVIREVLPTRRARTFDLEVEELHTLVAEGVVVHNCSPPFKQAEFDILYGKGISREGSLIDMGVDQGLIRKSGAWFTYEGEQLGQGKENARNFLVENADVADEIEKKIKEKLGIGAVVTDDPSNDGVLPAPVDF
In words: Fluorescence Cell-Free Homogeneous Dose Retest to Identify Inhibitors of RecA-Intein Splicing Activity. [Related pubchem assays (depositor defined):AID2097, AID2223, AID489010, AID492950]. It is filed as functional.

In assay [16] the target is T3, Replicative DNA helicase DnaB (Mycobacterium tuberculosis, UniProt P9WMR3).
T3 sequence (P9WMR3 whole entry): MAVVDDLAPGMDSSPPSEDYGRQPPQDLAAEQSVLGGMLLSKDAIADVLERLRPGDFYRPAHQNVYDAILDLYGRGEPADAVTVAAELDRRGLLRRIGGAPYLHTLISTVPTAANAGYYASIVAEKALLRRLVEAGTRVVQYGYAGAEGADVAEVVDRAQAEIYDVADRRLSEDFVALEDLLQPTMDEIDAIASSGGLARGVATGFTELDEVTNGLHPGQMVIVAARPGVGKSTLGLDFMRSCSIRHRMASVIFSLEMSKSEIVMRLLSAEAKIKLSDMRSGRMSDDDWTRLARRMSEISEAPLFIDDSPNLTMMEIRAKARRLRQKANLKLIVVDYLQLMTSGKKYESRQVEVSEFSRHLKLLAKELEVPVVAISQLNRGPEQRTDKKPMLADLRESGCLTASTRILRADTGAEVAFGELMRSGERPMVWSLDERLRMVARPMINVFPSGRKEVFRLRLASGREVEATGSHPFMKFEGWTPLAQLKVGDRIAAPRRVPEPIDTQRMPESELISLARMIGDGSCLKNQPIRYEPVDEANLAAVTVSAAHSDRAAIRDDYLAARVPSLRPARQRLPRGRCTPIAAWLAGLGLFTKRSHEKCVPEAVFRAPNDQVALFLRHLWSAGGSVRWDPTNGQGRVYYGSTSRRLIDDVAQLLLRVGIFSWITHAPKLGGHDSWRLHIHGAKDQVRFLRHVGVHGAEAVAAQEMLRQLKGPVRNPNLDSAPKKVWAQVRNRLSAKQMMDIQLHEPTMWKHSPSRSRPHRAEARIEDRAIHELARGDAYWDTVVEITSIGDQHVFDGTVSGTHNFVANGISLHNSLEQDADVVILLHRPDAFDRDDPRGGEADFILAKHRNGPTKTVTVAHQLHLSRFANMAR
In words: DnaB intein splicing inhibitors, dose response, biochemical, cell-free fluorescence (AID 449749). It counts as functional.

The source made the active and inactive calls.

Sequence of Luciferin 4-monooxygenase (P08659 whole entry): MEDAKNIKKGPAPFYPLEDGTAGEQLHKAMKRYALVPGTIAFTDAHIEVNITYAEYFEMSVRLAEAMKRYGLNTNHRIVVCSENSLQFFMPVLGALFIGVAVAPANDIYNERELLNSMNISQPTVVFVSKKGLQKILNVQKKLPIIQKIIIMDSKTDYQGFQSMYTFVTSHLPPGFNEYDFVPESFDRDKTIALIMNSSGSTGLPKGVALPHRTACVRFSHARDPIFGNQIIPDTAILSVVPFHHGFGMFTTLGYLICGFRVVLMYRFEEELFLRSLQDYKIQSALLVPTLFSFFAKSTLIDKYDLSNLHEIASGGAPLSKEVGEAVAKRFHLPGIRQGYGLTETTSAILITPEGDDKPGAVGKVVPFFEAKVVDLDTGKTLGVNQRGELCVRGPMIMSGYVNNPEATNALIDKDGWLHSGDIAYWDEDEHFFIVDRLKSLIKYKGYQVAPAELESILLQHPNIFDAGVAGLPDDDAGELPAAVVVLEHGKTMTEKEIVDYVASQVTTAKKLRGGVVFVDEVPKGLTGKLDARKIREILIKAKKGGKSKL

`C=C1[C@@H](O)[C@@H]2O[C@]3(CC[C@H](/C=C/[C@@H](C)[C@@H]4CC(C)=CC5(O[C@H](C[C@@](C)(O)C(=O)OC)CC[C@H]5O)O4)O3)CC[C@H]2O[C@@H]1[C@@H](O)C[C@H](C)[C@H]1OC2(CCCCO2)CC[C@H]1C` (some centres not stated): the AC50 in assay [1] was < 0.16 µM (inconclusive); in [2], < 0.195 µM (active). With `CN1CC(=O)N(CC(=O)Nc2ccc(N(C)C)cc2)c2ccccc2C1=O`, in [3], the IC50 was 56.7 µM (active). For `CC(C(=O)N1CCCc2ccccc21)N1CCN(c2ccccn2)CC1` (configuration not stated), the half-inhibitory concentration (IC50) in [3] is 93.9 µM (active). As to `COc1cccc(-c2ccc([C@H]3[C@H](CO)N4CCCCN(CC5CC5)C[C@@H]34)cc2)c1`, the AC50 in assay [4] is 5.84 µM (active). `O=C(N/N=C/c1sc(=O)n(-c2ccccc2)c1Cl)c1ccccc1`: in assay [5], the EC50 is 34.9 µM (inconclusive). Regarding `COc1ccc(NC2CCCN(C(=O)c3cc(C)nc4cc(F)ccc34)C2)cc1` (configuration not stated), the IC50 in assay [3] was 120 µM (active). Take `COc1cccc(-c2ccc3c(c2)[C@H]2[C@H](CCN2C(=O)C2CCCC2)[C@H](CO)N3)c1`: the AC50 in [4] was 7.06 µM (active).

`CS(=O)(=O)N1[C@H](C#N)[C@H](c2ccccc2-c2ccccc2)[C@H]1CO`: in [4], the AC50 was > 36 µM (inactive). For `COc1ccc(-n2c(Cc3cccn3C)nnc2SCC(=O)Nc2cccc(Cl)c2)cc1`, the AC50 in assay [1] is 125 µM (active). With `Cc1ccccc1-c1ccc([C@H]2[C@H]3CNC[C@@H]2N3S(=O)(=O)c2cccc(F)c2)cc1`, the AC50 in assay [4] is 35.7 µM (active). Regarding `COc1ccc(-c2[nH]ncc2N=Nc2ccccc2)cc1`, in assay [1], the AC50 is 3.81 µM (active). On to `CCC(=O)Nc1ccc2c(c1)OC[C@H](C)N(Cc1ccccn1)C[C@H](C)[C@H](OC)CN(C)C2=O`, for which the AC50 in assay [4] was 15.3 µM (active).

`CCOC(=O)C1=C(C)NC(=O)NC1`: the results for the half-maximal effective concentration (EC50) in assay [6] and in [7] were > 112 µM (not active) and 5.87 µM (active), respectively. On to `COc1ccc(NC(=O)c2ccc(OC(F)F)cc2)cc1Cl`, for which the values for the EC50 in assay [6] and in [7] were 3.3 µM (active) and 4.52 µM (active), respectively. On to `Cc1ccc(C(C)(C)C)cc1S(=O)(=O)N1CCC(C(=O)N2CCN(c3ccc(O)cc3)CC2)CC1`, for which the IC50 in [3] is 99.1 µM (active).

As for `Cc1occc1C(=O)Nc1cc(C(C)(C)C)on1`, the EC50 in assay [6] was 2.78 µM (active); in assay [7], 3.46 µM (active). Consider `C=CCN1C(=O)/C(=C/C=C2/N(CC)c3ccc(S(=O)(=O)N(C)C)cc3N2CC)SC1=S`, for which the IC50 in [8] was > 100 µM (active). Take `Cc1cc(C(=O)N/N=C/c2cc(Br)cc(Br)c2OC(=O)c2cccc(F)c2)[nH]n1`: the EC50 was > 60 µM (inconclusive) in assay [9]; 8.5 µM (active) in assay [10]; 8.33 µM (active) in assay [11]; 1.01 µM (active) in assay [12]; 7.49 µM (active) in assay [13]. In addition, the AC50 in assay [1] is 3.46 µM (active); in assay [2] it was 2.33 µM (active). Regarding `COc1ccccc1/C=N/Nc1nccnc1Cl`, the results for the EC50 in [6] and in assay [7] were 12.3 µM (active) and 5.37 µM (active), respectively.

For the molecule `CCOC(=O)c1[nH]nc(-c2c(O)cc(C)cc2O)c1-c1csc(C)n1`, the EC50 in assay [6] and in assay [7] was > 112 µM (not active) in each case.

On to `Cc1ccnc(Nc2nc(-c3ccc(O)cc3O)cs2)c1`, for which, in [14], the CC50 was 25.8 µM (active). Further, in assay [1], the AC50 is 12.3 µM (active). For the molecule `O=C(N/C(=C\c1ccc(O)cc1)C(=O)N1CCCCC1)c1ccccc1`, the IC50 in assay [3] was 47.3 µM (active). With `CCn1c2ccccc2c2cc(NC(=O)c3cccc([N+](=O)[O-])c3)ccc21`, the AC50 in [1] is 1.62 µM (active). As to `COc1ccc(C2=NN(c3ccccc3)C(=O)/C2=C\c2ccc(O)c(OC)c2)cc1`, the EC50 in [15] is 1.42 µM (active). The IC50 in [8] is 42.4 µM (active). Besides, in [16], the AC50 was 2.29 µM (active).

Turning to `Cc1ccc2oc(-c3ccc(NC(=O)c4cccnc4)cc3)nc2c1`, the EC50 in assay [6] and in assay [7] was > 112 µM (not active) in each case. The AC50 in [2] was 7.77 µM (active).

A word on the AC50: it is the concentration at which the activity in the assay is half-maximal. The IC50 is the point on the concentration scale where inhibition reaches its midpoint. By EC50 is commonly meant the concentration needed to bring the measured effect to its halfway point. By CC50 is commonly meant the concentration at which the toxic effect on the cells reaches its halfway point.
